Results: patent US5196453A, “Crystalline deoxyspergualin, process for its preparation and suppository containing the same” (priority 1989, dated 1993)
Values joined by “and” are separate entries in the source; they are usually repeats but may differ in a detail not shown here. Identical values can stand only once. Counter-ions that a name gives are not always drawn. Like-named read-outs stand apart in the source and are kept apart here.

Experiments:
[1] = Heat stability: undecomposed substance by HPLC after storage at 50° C. for 6 days; format: physicochemical
Description: To evaluate the heat stability of α-form crystals of deoxyspergualin hydrochloride in comparison with that of the powder, samples were stored at 50° C. for 6 days and were analyzed by high-pressure liquid chromatography (HPLC), and the amount of undecomposed substance was measured.
To evaluate the heat stability of β-form crystals of deoxyspergualin hydrochloride in comparison with that of the powder, samples were stored at 50° C. for 6 days, and analyzed by HPLC to measure the amount of undecomposed substance.
To evaluate the heat stability of the Powder A in comparison with those of α-form crystals and β-form crystals of the above-identified application, samples were stored at 50° C. for 6 days and then analyzed by HPLC to measure the amount of undecomposed substance.

[2] = Hygroscopicity: change in weight after storage at different RH (%) for 24 hrs; format: physicochemical; conditions: for Deliquescence (in words): RH of 64%
Description: To evaluate the hygroscopicity of the powder and α-form crystals of deoxyspergualin hydrochloride, the change of the weight of each sample was measured after storage in different RH (%) for 24 hrs. To evaluate the hygroscopicity of the powder and β-form crystals of deoxyspergualin hydrochloride, the change in the weight of each sample was measured after storage in different RH (%) for 24 hrs. The hygroscopicity each of the Powder A and α-form crystals and β-form crystals of the above-identified application was evaluated by measuring the change in weight after storage in various RH(%) for 24 hrs.

Row | Amount of undecomposed substance [1] | Increase in weight ([2]; RH 31%) | Increase in weight ([2]; RH 43%) | Increase in weight ([2]; RH 52%) | Increase in weight ([2]; RH 64%) | Amount of undecomposed substance ([1]; trihydrochloride, 8640 min) | Increase in weight ([2]; RH 14%) | Increase in weight ([2]; RH 31%, trihydrochloride) | Increase in weight ([2]; RH 43%, trihydrochloride) | Increase in weight ([2]; RH 52%, trihydrochloride) | Increase in weight ([2]; RH 64%, trihydrochloride) | Increase in weight ([2]; RH 76%, trihydrochloride) | Deliquescence (in words) ([2]; trihydrochloride) | Water absorption (in words) ([2]; RH of 52% or below) | SMILES
1 | 59.7% | 5.0% | 6.3% | 7.4% | 13.2% | – | – | – | – | – | – | – | – | – | Cl.Cl.Cl.N=C(N)NCCCCCCC(=O)NC(O)C(=O)NCCCCNCCCN (centres unmarked) [Powder A, N-[4-(3-aminopropyl)aminobutyl]-2-(7-guanidinoheptanamido)-2-hydroxyethanamide trihydrochloride, reference compound]
2 | – | – | – | – | – | 89.8% and 83% | 1.5% | 5.9% | 9.1% | 12.6% | 17.9% | 28.3% | deliquesced | – | N=C(N)NCCCCCCC(=O)NC(O)C(=O)NCCCCNCCCN (centres unmarked) [Powder, N-[4-(3-aminopropyl)aminobutyl]-2-(7-guanidinoheptanamide)-2-hydroxyethanamide trihydrochloride, reference compound]
3 | – | – | – | – | – | 100.1% and 100.0% | – | -0.6% and -0.8% | -0.4% | -0.1% and -0.2% | 15.2% and 17.8% | – | – | did not absorb water | N=C(N)NCCCCCCC(=O)NC(O)C(=O)NCCCCNCCCN (stereo not drawn) [α-form crystals, N-[4-(3-aminopropyl)aminobutyl]-2-(7-guanidinoheptanamide)-2-hydroxyethanamide trihydrochloride]
4 | – | – | – | – | – | 100.6% and 100.2% | – | 1.7% and 1.2% | 2.6% and 2.1% | 3.8% and 3.0% | 7.3% and 6.1% | 14.0% | did not deliquesce | – | N=C(N)NCCCCCCC(=O)NC(O)C(=O)NCCCCNCCCN (stereo not drawn) [β-form crystals, N-[4-(3-aminopropyl)aminobutyl]-2-(7-guanidinoheptanamide)-2-hydroxyethanamide trihydrochloride]
